According to patent US9301521B2, “Bee attractants” (priority 2013, dated 2016):

Assays:
[1] = system: O. lignaria female antennae; experiment: EAG response to specific fatty acids and mixtures; set-up: species or system Osmia lignaria; details: O. lignaria (n = 12); 100 CE
Excerpt: (§1) The objective of this example is to compare antennal responses of three Osmia species (O. lignaria, O. bucephala, and O. cornifrons obtained from near a Pennsylvania apple orchard) to each of three fatty acids, each combined mixture of two acids, and the combined mixture of all acids (see Table 11). Female and male bees are maintained in laboratory cages and fed honey-water ad libitum for four days. On the fourth day, one antenna at a time is removed from each chilled, live female test bee with scissors and placed on the electrode probe of a Syntech EAG (Kirchzarten, Germany). The electrode with the antenna is inserted into a glass tube into which flows humidified air, and into which a stimulus (air, a fatty acid, or fatty acid mixture) is applied.
(§2) Each of the above indicated fatty acids, purchased from Sigma-Aldrich (St. Louis, Mo.), are dissolved in ethyl alcohol at a concentration similar to that used for the Synthetic Blend. Each fatty acid and each mixture (Equistar Chemicals, LP, Houston, Tex.) is evenly applied to a circular filter paper in Petri dish (9 cm) at dose of 100 CE. A 1.5 cm^2 piece of filter paper is cut from the center of the filter paper circle. The piece of filter paper is placed into the disposable glass pipette (4.6 cm) that is used for delivery by applying a controlled puff of air over the filter paper.
(§3) Each of the single or mixtures of fatty acids described above (see Table 11) and a control (air) are tested on an antenna: Air or filter paper pieces with each fatty acid or fatty acids mixture are delivered in succession every minute until an antenna is exposed to each cue and air three times (total test period=30 minutes). The antennal responses are recorded, and their amplitudes are measured using Syntech EAG software (Kirchzarten, Germany). The antennal responses of ≦12 female bees per species are recorded. […]

[2] = system: O. cornifrons female antennae; experiment: EAG response to specific fatty acids and mixtures; set-up: species or system Osmia cornifrons; details: O. cornifrons (n = 12); 100 CE
Excerpt: as §1, §2, §3

[3] = system: O. bucephala female antennae; experiment: EAG response to specific fatty acids and mixtures; set-up: species or system Osmia bucephala; details: O. bucephala (n = 8); 100 CE
Excerpt: as §1, §2, §3

[4] = system: O. lignaria; experiment: Field tests with fatty acids on filter papers, apple orchard in Utah; assay type: in vivo, Osmia lignaria; details: single fatty acid set; for females found in artificial nest sites, range: 9 sample dates; for Cells/replicate / Nests/replicate / Females/date: 400 CE per nest site; for Cells/replicate / Nests/replicate: five replicates; for Females/date: mean ± SE for 9 sample dates
Excerpt: To better understand whether application of one, or some mixture of, free fatty acids to nesting material or artificial nest sites is attractive to O. lignaria, two experimental sets are generated so that one set tests for differences in bee response to each single fatty acid and the other set tests for differences in bee response to mixtures of the fatty acids described above in Table 11. Fatty acids are applied to separate filter papers so that each filter paper contains 200 CE. As a negative control, the volume of ethyl alcohol used for the other samples is applied to its own filter paper. For the experiment in an apple orchard in Utah, each small, corrugated plastic box artificial nest site (20×23×20 cm), with two bundles of 19 paper tubes each, is hung in an apple tree; nest sites are separated by one tree between them within each replicate group. To each nest site, two of the 200 CE impregnated filter papers are applied; thus, a total of 400 CE of the stimulus is present within each nest site. Each filter paper (containing either a single fatty acid, one mixture of fatty acids, or the negative control) is attached using cable ties to the front of one tube in each of the two bundles in each artificial nest site. The filter papers are replaced weekly. Each artificial nest site contains only one type of treatment. For the single fatty acid comparison, artificial nest sites are placed in the orchard in five replicates of the three treatments plus a control (i.e., four nest sites per replicate), with each artificial nest site opening facing southeast. For the mixtures of fatty acids comparison, artificial nest sites are placed in the orchard in five replicates of the four treatments plus a control (i.e., five nest sites per replicate), with each artificial nest site opening facing southeast. Both experimental sets are located in the same orchard where they are intermittently placed but separated by at least two rows of apple trees. A total of 540 female and 1000 male bees are released throughout the orchard at least one tree row from the artificial nest sites using several release box sites (with equal numbers of bees per box). Artificial nest sites are checked daily for the presence of male and female bees and for tubes with completed nests. Tubes with completed nests are removed and are replaced with fresh ones. Later, all nests containing any bee cells are examined with x-radiography to determine number of cells in each nest.

[5] = Evaporation rates of attractants (weight loss of vials); assay type: physicochemical
Description: The objective of this experiment is to quantify the loss of the fatty acids and Synthetic Blend via evaporation. Synthetic Blend is prepared as per Example 3. Decanoic acid, dodecanoic acid, and tetradecanoic acid are purchased as per Example 4. Synthetic Blend is a liquid at room temperature. Vials containing between 0.235 and 0.304 grams of either Synthetic Blend or each individual fatty acid are placed in a 40° C. incubator and a ˜30° C. incubator room with a fan and are weighed after 1, 4, 10, 24, 31, 39 and 44 days. Three vials are monitored for each attractant, and the average weight loss is calculated. All samples lose weight faster at 30° C. with airflow compared to 40° C. without airflow. After […] at 30° C. with airflow, Synthetic Blend loses only 0.57% of its weight (see FIG. 2). This loss of mass is caused mostly by evaporation of decanoic acid which comprises approximately 73% of Synthetic Blend. After 24 days, Synthetic Blend loses 9.8% of its mass and after 44 days, 17.2% of its mass. A linear relationship is found between weight loss and days for both environments (see FIG. 3).

Row | SMILES | Mean Amplitude ± SE [1] | Mean Amplitude ± SE [2] | Mean Amplitude ± SE [3] | females found in artificial nest sites, range [4] | Cells/replicate [4] | Nests/replicate [4] | Females/date [4] | relative evaporation of blend components [5]
1 | CCCCCCCCCC(=O)O [Decanoic acid, decanoic acid] | −0.98 ± 0.06 | −0.89 ± 0.06 | −1.31 ± 0.10 | 4-15 | 13.4 ± 6.13 | 2.6 ± 1.17 | 10.2 ± 1.14 | evaporated much faster than tetradecanoic acid and dodecanoic acid
2 | CCCCCCCCCCCC(=O)O [Dodecanoic acid, dodecanoic acid] | −0.41 ± 0.03 | −0.43 ± 0.04 | −0.83 ± 0.06 | – | 8.8 ± 7.40 | 1.4 ± 1.17 | 3.4 ± 0.67 | –
3 | CCCCCCCCCCCCCC(=O)O [Tetradecanoic acid, tetradecanoic acid] | −0.41 ± 0.03 | −0.43 ± 0.04 | −0.92 ± 0.07 | 0-1 | 1.6 ± 1.6 | 0.2 ± 0.2 | 0.4 ± 0.17 | –
